Data reported in PubChem BioAssay AID652132 (Broad Institute, 2013).

Test system: Signal transducer and activator of transcription 1 (STAT1), rat
Assay: STAT1 level and phosphorylation inhibition – cell-based, rat, cytokine stimulus, time course, mechanism study, late-stage follow-up (AID 652132)
Conditions: INS-1E cells, cytokine-induced STAT1/pSTAT1 western blot, at 10 µM, stronger effect = higher value

C[C@@H]1CN([C@@H](C)CO)C(=O)c2cccc(NC(=O)Nc3cccc4ccccc34)c2O[C@H]1CN(C)S(=O)(=O)c1ccc2c(c1)OCCO2 gave a p-STAT1 inhibition, 24 h of 65%, an inhibition (measured here: p-STAT1 inhibition 8 h) of 97% and an inhibition (measured here: p-STAT1 inhibition 12 h) of 80%. The inhibition (measured here: total STAT1 inhibition 8 h) was 69%, the inhibition (measured here: total STAT1 inhibition 12 h) was 53% and the inhibition (measured here: total STAT1 inhibition 24 h) was 43%.
